The results in this text go back to BindingDB's records for doi:10.1021/jm990383f (Upjohn, 2000).

Assay [1] has as its target T1, Gag-Pol polyprotein [588-1027]/[588-1147] (Human immunodeficiency virus 1, UniProt P04585).
T1 construct: 588-1027; 588-1147
In words: HIV-1 RT Assay. The settings on record: pH 8.3; 28 °C. An excerpt: (§1) The IC50 of reverse transcriptase is the concentration that inhibits 50% of recombinant HIV-1 RT RNA-directed DNA polymerase activity in vitro.

Assay [2] deals with T2, Gag-Pol polyprotein [588-1027,P823L]/[588-1147,P823L] (Human immunodeficiency virus 1, UniProt P04585, P823L).
T2 construct: 588-1027; 588-1147
The assay is described as follows: HIV-1 RT Assay. The note with it: pH 8.3; 28 °C.
From the text: as §1

The structures appear in SMILES notation.

Take `CCc1c(CCO)nn(-c2ccccc2)c1-c1ccccc1` [1,5-Diphenyl-3-(2-hydroxyethyl)-4-ethylpyrazole]: in assay [1], the IC50 was more than 50 µM.
For `C#CCc1c(C)nn(-c2ccccc2)c1-c1ccccc1` [3-methyl-1,5-diphenyl-4-(prop-2-yn-1-yl)-1H-pyrazole], the IC50 was determined as 13.4 µM in assay [1] and 1.54 µM in assay [2].
